According to ChEMBL document CHEMBL6092222 (J Med Chem, 2024):
≈ marks a conversion by molar mass, not a printed value.

What was measured:
[1] = Chemical stability of compound in 0.1 M HCl at pH 1 at 37 degreeC assessed as half life measured for 24 hrs by reversed phase-HPLC analysis; type: physicochemical
physchem [2] = conditions: aqueous buffer, pH 1
Description: Solubility of compound in aqueous buffer at pH 1 at 25 degreeC by reversed phase-HPLC analysis

physchem [3] = conditions: aqueous buffer, pH 4
Description: Solubility of compound in aqueous buffer at pH 4 at 25 degreeC by reversed phase-HPLC analysis

[4] = Chemical stability of compound in phosphate buffer at pH 6.5 at 37 degreeC assessed as half life measured for 24 hrs by reversed phase-HPLC analysis; type: physicochemical
[5] = Chemical stability of compound in acetate buffer at pH 4 at 37 degreeC assessed as half life measured for 24 hrs by reversed phase-HPLC analysis; type: physicochemical
physchem [6] = conditions: aqueous buffer, pH 6.5
Description: Solubility of compound in aqueous buffer at pH 6.5 at 25 degreeC by reversed phase-HPLC analysis

[7] = Cmax in Pentagastrine-pretreated Sprague-Dawley rat at 10 mg/kg, po measured for 24 hrs by UPLC-MS/MS analysis; type: ADME, organism-based; conditions: in vivo
[8] = Tmax in Pentagastrine-pretreated Sprague-Dawley rat at 10 mg/kg, po measured for 24 hrs by UPLC-MS/MS analysis; type: ADME, organism-based; conditions: in vivo
[9] = Oral bioavailability in Pentagastrine-pretreated Sprague-Dawley rat at 10 mg/kg measured for 24 hrs by UPLC-MS/MS analysis; type: ADME, organism-based; conditions: in vivo
[10] = AUC (total) in Sprague-Dawley rat at 10 mg/kg, po measured for 24 hrs by UPLC-MS/MS analysis; type: ADME, organism-based; conditions: in vivo
[11] = Solubility of compound in FaSSIF at pH 6.5 by reversed-phase UPLC analysis; type: physicochemical
[12] = Lipophilicity, logP of compound by HPLC analysis; type: physicochemical
[13] = Oral bioavailability in mouse at 50 mg/kg administered as suspension; type: ADME, organism-based; conditions: in vivo
[14] = Oral bioavailability in mouse; type: ADME, organism-based; conditions: in vivo
[15] = Solubility of compound at pH 7.4 by reversed-phase UPLC analysis; type: physicochemical; conditions: buffer
[16] = Cmax in Famotidine-pretreated Sprague-Dawley rat at 10 mg/kg, po measured for 24 hrs by UPLC-MS/MS analysis; type: ADME, organism-based; conditions: in vivo
[17] = Oral bioavailability in rat; type: ADME, organism-based; conditions: in vivo
[18] = Tmax in Sprague-Dawley rat at 10 mg/kg, po measured for 24 hrs by UPLC-MS/MS analysis; type: ADME, organism-based; conditions: in vivo
[19] = Solubility of compound at pH 3 by reversed-phase UPLC analysis; type: physicochemical; conditions: buffer
[20] = Oral bioavailability in monkey; type: ADME, organism-based, Macaca mulatta; conditions: rhesus monkey, in vivo
[21] = Protein binding in human plasma assessed as free fraction; type: ADME, cell-free
[22] = Permeability of compound by PAMPA; type: ADME; conditions: read-out: permeability
[23] = Cmax in Sprague-Dawley rat at 10 mg/kg, po measured for 24 hrs by UPLC-MS/MS analysis; type: ADME, organism-based; conditions: in vivo
[24] = Inhibition of STAT5 phosphorylation in IFN-gamma-treated human whole blood; type: tissue-based
[25] = Tmax in Famotidine-pretreated Sprague-Dawley rat at 10 mg/kg, po measured for 24 hrs by UPLC-MS/MS analysis; type: ADME, organism-based; conditions: in vivo
[26] = AUC (total) in Pentagastrine-pretreated Sprague-Dawley rat at 10 mg/kg, po measured for 24 hrs by UPLC-MS/MS analysis; type: ADME, organism-based; conditions: in vivo
[27] = Solubility of compound at pH 2 by reversed-phase UPLC analysis; type: physicochemical; conditions: buffer
[28] = Oral bioavailability in Sprague-Dawley rat at 10 mg/kg measured for 24 hrs by UPLC-MS/MS analysis; type: ADME, organism-based; conditions: in vivo
[29] = Solubility of compound at pH 4 by reversed-phase UPLC analysis; type: physicochemical; conditions: buffer
[30] = Protein binding in rat plasma assessed as free fraction; type: ADME, cell-free
[31] = Protein binding in monkey plasma assessed as free fraction; type: ADME, cell-free, Macaca mulatta; conditions: rhesus monkey
[32] = Solubility of compound in FeSSIF at pH 5 by reversed-phase UPLC analysis; type: physicochemical
[33] = Solubility of compound at pH 6.5 by reversed-phase UPLC analysis; type: physicochemical; conditions: buffer
[34] = Solubility of compound at pH 5 by reversed-phase UPLC analysis; type: physicochemical; conditions: buffer
[35] = Oral bioavailability in Famotidine-pretreated Sprague-Dawley rat at 10 mg/kg measured for 24 hrs by UPLC-MS/MS analysis; type: ADME, organism-based; conditions: in vivo
[36] = AUC (total) in Famotidine-pretreated Sprague-Dawley rat at 10 mg/kg, po measured for 24 hrs by UPLC-MS/MS analysis; type: ADME, organism-based; conditions: in vivo
[37] = Dissociation constant, pKa of compound; type: physicochemical
[38] = Efflux ratio of apparent permeability across basal to apical side over apical to basal side in human Caco-2 cells; type: ADME, cell-based
[39] = Apparent permeability across apical to basal side in human Caco-2 cells; type: ADME, cell-based
[40] = Solubility of compound at pH 1 by reversed-phase UPLC analysis; type: physicochemical; conditions: buffer
[41] = Prodrug conversion in Famotidine-pretreated Sprague-Dawley rat assessed as AUC (total) of 6-(cyclopropanecarboxamido)-4-((2-methoxy-3-(2-methyl-2H-tetrazol-5-yl)phenyl)amino)-N-(methyl-d3)nicotinamide metabolite at 10 mg/kg, po measured for 24 hrs by UPLC-MS/MS analysis; type: ADME, organism-based; conditions: in vivo
[42] = Prodrug conversion in Famotidine-pretreated Sprague-Dawley rat assessed as Tmax of 6-(cyclopropanecarboxamido)-4-((2-methoxy-3-(2-methyl-2H-tetrazol-5-yl)phenyl)amino)-N-(methyl-d3)nicotinamide metabolite at 10 mg/kg, po measured for 24 hrs by UPLC-MS/MS analysis; type: ADME, organism-based; conditions: in vivo
[43] = Prodrug conversion in Pentagastrine-pretreated Sprague-Dawley rat assessed as AUC (total) of 6-(cyclopropanecarboxamido)-4-((2-methoxy-3-(2-methyl-2H-tetrazol-5-yl)phenyl)amino)-N-(methyl-d3)nicotinamide metabolite at 10 mg/kg, po measured for 24 hrs by UPLC-MS/MS analysis; type: ADME, organism-based; conditions: in vivo
[44] = Prodrug conversion in Pentagastrine-pretreated Sprague-Dawley rat assessed as Cmax of 6-(cyclopropanecarboxamido)-4-((2-methoxy-3-(2-methyl-2H-tetrazol-5-yl)phenyl)amino)-N-(methyl-d3)nicotinamide metabolite at 10 mg/kg, po measured for 24 hrs by UPLC-MS/MS analysis; type: ADME, organism-based; conditions: in vivo
[45] = Prodrug conversion in Pentagastrine-pretreated Sprague-Dawley rat assessed as Tmax of 6-(cyclopropanecarboxamido)-4-((2-methoxy-3-(2-methyl-2H-tetrazol-5-yl)phenyl)amino)-N-(methyl-d3)nicotinamide metabolite at 10 mg/kg, po measured for 24 hrs by UPLC-MS/MS analysis; type: ADME, organism-based; conditions: in vivo
[46] = Prodrug conversion in Famotidine-pretreated Sprague-Dawley rat assessed as Cmax of 6-(cyclopropanecarboxamido)-4-((2-methoxy-3-(2-methyl-2H-tetrazol-5-yl)phenyl)amino)-N-(methyl-d3)nicotinamide metabolite at 10 mg/kg, po measured for 24 hrs by UPLC-MS/MS analysis; type: ADME, organism-based; conditions: in vivo

## [2H]C([2H])([2H])NC(=O)c1cn(COC(=O)c2ccc(OP(=O)(O)O)c(OC)c2)/c(=N/C(=O)C2CC2)cc1Nc1cccc(-c2nnn(C)n2)c1OC
[1]
  half-life: > 500 h
Physchem [2]
  solubility: < 1 µg/mL
Physchem [3]
  solubility: 58 µg/mL (≈ 84.6 µM)
[4]
  half-life: 84 h
[5]
  half-life: 215 h
Physchem [6]
  solubility: 1000 µg/mL (≈ 1460 µM)

## CNCC(=O)OCc1cccnc1N(C)C(=O)OCn1cc(C(=O)NC)c(Nc2cccc(-c3nnn(C)n3)c2OC)c/c1=N\C(=O)C1CC1.Cl
[1]
  half-life: 334 h
Physchem [2]
  solubility: 650 µg/mL
Physchem [3]
  solubility: 580 µg/mL
[4]
  half-life: 5.7 h
[5]
  half-life: 72 h

## [2H]C([2H])([2H])N(COP(=O)([O-])[O-])C(=O)c1cnc(NC(=O)C2CC2)cc1Nc1cccc(-c2nnn(C)n2)c1OC.[Na+].[Na+]
[4]
  half-life: 71.8 h
[5]
  half-life: 0.7 h
Physchem [6]
  solubility: 2500 µg/mL

## NC(CO)(CO)CO.[2H]C([2H])([2H])NC(=O)c1cn(COP(=O)(O)O)/c(=N/C(=O)C2CC2)cc1Nc1cccc(-c2nnn(C)n2)c1OC
Physchem [2]
  solubility: 1 µg/mL
Physchem [3]
  solubility: 2 µg/mL
Physchem [6]
  solubility: 141 µg/mL

## [2H]C([2H])([2H])NC(=O)c1cn(COC(=O)c2ccc(COP(=O)(O)O)cc2)/c(=N/C(=O)C2CC2)cc1Nc1cccc(-c2nnn(C)n2)c1OC
[1]
  half-life: 334 h
Physchem [2]
  solubility: 1 µg/mL (≈ 1.49 µM)
[4]
  half-life: 130 h
[5]
  half-life: 334 h
Physchem [6]
  solubility: 1 µg/mL (≈ 1.49 µM)

## [2H]C([2H])([2H])NC(=O)c1cnc(NC(=O)C2CC2)cc1Nc1cccc(-c2nnn(C)n2)c1OC
[7]
  Cmax: 8.6 µM
[8]
  Tmax: 0.9 h
[9]
  bioavailability: 91%
[10]
  AUC at 24 h: 18.4 µM·h
[11]
  solubility: 8 µg/mL (≈ 18.8 µM)
[12]
  logP: 2.7
[13]
  bioavailability: 63%
[14]
  bioavailability: 100%
[15]
  solubility: < 1 µg/mL
[16]
  Cmax: 0.77 µM
[17]
  bioavailability: 50%
[18]
  Tmax: 1.1 h
[19]
  solubility: 17 µg/mL (≈ 40 µM)
[20]
  bioavailability: 100%
[21]
  fraction unbound: 0.1
[22]
  Papp: ~60 ×10⁻⁶ cm/s
[23]
  Cmax: 4.8 µM
[24]
  IC50: 23 nM
Physchem [2]
  solubility: 2020 µg/mL (≈ 4750 µM)
[25]
  Tmax: 2.5 h
[26]
  AUC at 24 h: 46 µM·h
[27]
  solubility: 1680 µg/mL (≈ 3950 µM)
[28]
  bioavailability: 36%
[29]
  solubility: 5 µg/mL (≈ 11.8 µM)
Physchem [3]
  solubility: 5 µg/mL (≈ 11.8 µM)
[30]
  fraction unbound: 0.07
[31]
  fraction unbound: 0.08
[32]
  solubility: 57 µg/mL (≈ 134 µM)
[33]
  solubility: < 1 µg/mL
[34]
  solubility: < 1 µg/mL
[35]
  bioavailability: 15.4%
[36]
  AUC at 24 h: 7.8 µM·h
[37]
  pKa: 4.8
Physchem [6]
  solubility: 1 µg/mL (≈ 2.35 µM)
[38]
  efflux ratio: 8.2
[39]
  Papp A→B: 6.7 ×10⁻⁶ cm/s
[40]
  solubility: 2020 µg/mL (≈ 4750 µM)

## Cl.[2H]C([2H])([2H])NC(=O)c1cnc(NC(=O)C2CC2)cc1Nc1cccc(-c2nnn(C)n2)c1OC
[7]
  Cmax: 7.1 µM
[8]
  Tmax: 5.5 h
[16]
  Cmax: 0.8 µM
[25]
  Tmax: 4 h
[26]
  AUC at 24 h: 53.4 µM·h
[36]
  AUC at 24 h: 5.5 µM·h

## [2H]C([2H])([2H])NC(=O)c1cn(COP(=O)([O-])[O-])/c(=N/C(=O)C2CC2)cc1Nc1cccc(-c2nnn(C)n2)c1OC.[Na+].[Na+]
[41]
  AUC: 58 µM·h
[42]
  Tmax: 2.5 h
[1]
  half-life: > 500 h
Physchem [2]
  solubility: 10 µg/mL
[43]
  AUC: 79 µM·h
[44]
  Cmax: 11.6 µM
Physchem [3]
  solubility: 1 µg/mL
[45]
  Tmax: 2.1 h
[46]
  Cmax: 8.1 µM
[4]
  half-life: 177 h
[5]
  half-life: 376 h
Physchem [6]
  solubility: 1470 µg/mL

## NCCCC[C@H](N)C(=O)O.[2H]C([2H])([2H])NC(=O)c1cn(COP(=O)(O)O)/c(=N/C(=O)C2CC2)cc1Nc1cccc(-c2nnn(C)n2)c1OC
Physchem [2]
  solubility: 4 µg/mL
Physchem [3]
  solubility: 9 µg/mL
Physchem [6]
  solubility: 308 µg/mL

## [2H]C([2H])([2H])NC(=O)c1cn(COC(=O)CC(C)(C)c2c(C)cc(C)cc2OP(=O)(O)O)/c(=N/C(=O)C2CC2)cc1Nc1cccc(-c2nnn(C)n2)c1OC
[1]
  half-life: 64 h
Physchem [2]
  solubility: 22 µg/mL (≈ 29.7 µM)
Physchem [3]
  solubility: 44 µg/mL (≈ 59.5 µM)
[4]
  half-life: 7.7 h
[5]
  half-life: 274 h
